Laboratory results reported in US20250230193A1, “CYCLIC COMPOUND HAVING SELECTIVE KRAS INHIBITORY EFFECT ON HRAS AND NRAS” (CHUGAI SEIYAKU KABUSHIKI KAISHA, priority 2022, published 2025).
Where two headings read alike, the source gives them in different places. *1 amine or outer side, *2 acyl side, *3 side chain or, on linkers, in order; H or OH if unused. Where a SMILES comes first, the peptide text is derived from it. Bridges are numbered along the chain shown (N, C = ends). [ ]: non-standard residue; d: D form. The star is where a group is joined. hPhe(3,5-F2-4-CF3) = N[C@@H](CCc1cc(F)c(C(F)(F)F)c(F)c1)C(=O)O; X6 = CC(C)(C)CCN([C@@H](Cc1ccc(C(F)(F)F)cc1)C(=O)[*:2])[*:1]; hPhe(3-Cl-4-CF3) = N[C@@H](CCc1ccc(C(F)(F)F)c(Cl)c1)C(=O)O; X8 = CCCN([C@@H](Cc1ccc(OCC=[*:3])cc1)C(=O)[*:2])[*:1]; X7 = CN([C@@H](CCC=[*:3])C(=O)[*:2])[*:1]; NMeGly(cPent) = CN[C@H](C(=O)O)C1CCCC1; Hyp = O=C(O)[C@@H]1C[C@@H](O)CN1; NMeD = CN[C@@H](CC(=O)O)C(=O)O; NMeL = CN[C@@H](CC(C)C)C(=O)O; Morpholide = C1CN(*)CCO1; Ac5c = NC1(C(=O)O)CCCC1; Sar = CNCC(=O)O

Tests used:
[1] = biological target: GDP-bound NRAS wild-type protein (Homo sapiens, UniProt P01111); assay: Binding to NRAS by surface plasmon resonance (SPR), Single Cycle Kinetics
Chain of GDP-bound NRAS wild-type protein (P01111 whole entry): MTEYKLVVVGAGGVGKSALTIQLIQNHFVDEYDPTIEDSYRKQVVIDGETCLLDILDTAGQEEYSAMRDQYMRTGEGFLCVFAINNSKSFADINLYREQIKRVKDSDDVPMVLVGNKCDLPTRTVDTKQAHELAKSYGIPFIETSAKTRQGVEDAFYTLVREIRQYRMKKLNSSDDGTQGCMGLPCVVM

[2] = biological target: GDP-bound KRAS wild-type protein (Homo sapiens, UniProt P01116); assay: Binding to KRAS by surface plasmon resonance (SPR), Single Cycle Kinetics
[3] = biological target: GDP-bound HRAS wild-type protein (Homo sapiens, UniProt P01112); assay: Binding to HRAS by surface plasmon resonance (SPR), Single Cycle Kinetics
Chain of GDP-bound HRAS wild-type protein (P01112 whole entry): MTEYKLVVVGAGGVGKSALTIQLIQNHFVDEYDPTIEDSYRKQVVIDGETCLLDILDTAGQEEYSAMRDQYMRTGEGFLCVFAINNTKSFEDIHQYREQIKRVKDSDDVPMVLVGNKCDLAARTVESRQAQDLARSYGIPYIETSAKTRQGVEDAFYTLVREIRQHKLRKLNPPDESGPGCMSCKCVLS

[4] = test system: human lung cancer strain NCI-H441
[5] = KD ratio NRAS/KRAS, SPR, GDP-bound wild-type proteins
[6] = KD ratio HRAS/KRAS, SPR, GDP-bound wild-type proteins

CCCN1C(=O)CN(C)C(=O)CN(C)C(=O)[C@H]([C@@H](C)CC)NC(=O)[C@@H]2CCC=CCOc3ccc(cc3)C[C@H]1C(=O)N(C)CC(=O)N[C@@H](CCc1cc(F)c(C(F)(F)F)c(F)c1)C(=O)N1C[C@H](OCC)C[C@H]1C(=O)NC1(CCCC1)C(=O)N(C)[C@@H](C1CCCC1)C(=O)N(C)[C@H](C(=O)N(C)C)CC(=O)N2C [PP0900] ([X7]I[Sar][Sar][X8][Sar][hPhe(3,5-F2-4-CF3)][Hyp](Et)[Ac5c][NMeGly(cPent)][NMeD]-NMe2; staple 1-5; lactam N-11)
NRAS/KRAS (ratio of KD value with respect to NRAS to KD value with respect to KRAS) ([1]; KD ratio, GDP-bound NRAS wild-type vs GDP-bound KRAS wild-type, SPR): C (A compound having a KD ratio of 0.1 or more and less than 3 is denoted as C)
Kd ([2]; SPR, Single Cycle Kinetics; GDP-bound KRAS wild-type protein): 0.012 nM
HRAS/KRAS (ratio of KD value with respect to HRAS to KD value with respect to KRAS) ([3]; KD ratio, GDP-bound HRAS wild-type vs GDP-bound KRAS wild-type, SPR): C (A compound having a KD ratio of 0.1 or more and less than 3 is denoted as C)

CCC[C@H]1C(=O)N[C@@H]([C@@H](C)CC)C(=O)N(C)CC(=O)N(C)[C@H]2C/C=C\CCN(C2=O)[C@@H](Cc2ccc(C(F)(F)F)cc2)C(=O)N(C)CC(=O)N[C@@H](CCc2cc(F)c(C(F)(F)F)c(F)c2)C(=O)N2C[C@H](OCC)C[C@H]2C(=O)NC2(CC(C)(C)C2)C(=O)N(C)[C@@H](CC(C)(C)C)C(=O)N(C)C(C(=O)N(C)C)CC(=O)N1C (stereo partly shown) [PP2730]
NRAS/KRAS (ratio of KD value with respect to GDP-bound NRAS wild-type protein to KD value with respect to KRAS) ([1]; KD ratio NRAS/KRAS, class symbols): A (a compound having 10 or more and less than 20 is denoted as A)
Kd ([2]; GDP-bound KRAS wild-type protein, SPR Single Cycle Kinetics, 1:1 binding model): 0.065 nM
HRAS/KRAS (ratio of KD value with respect to GDP-bound HRAS wild-type protein to KD value with respect to KRAS) ([3]; KD ratio HRAS/KRAS, class symbols): A (a compound having 10 or more and less than 20 is denoted as A)

CC[C@H](C)[C@@H]1NC(=O)[C@H](CC(C)C)N(C)C(=O)CSC[C@@H](C(=O)N(C)C)N(C)C(=O)[C@H](C2CCCC2)N(C)C(=O)C2(CCCC2)NC(=O)[C@@H]2CCCN2C(=O)[C@H](CCc2cc(F)c(C(F)(F)F)c(F)c2)NC(=O)CN(C)C(=O)[C@H](Cc2ccc(C(F)(F)F)cc2)N2CC/C=C\C[C@@H](C2=O)N(C)C(=O)CN(C)C1=O (stereo in doubt) [PP3109]
Kd ([2]; SPR Single Cycle Kinetics, GDP-bound KRAS wild-type protein, 1:1 binding model): 3000 nM

CCC[C@H]1C(=O)N[C@@H]([C@@H](C)CC)C(=O)N(C2CC2)CC(=O)N(C)[C@H]2C/C=C\CCN(C2=O)[C@@H](Cc2ccc(C)cc2)C(=O)N(C)CC(=O)N[C@@H](CCc2ccc(C(F)(F)F)c(OC)c2)C(=O)N2C[C@H](OCC)C[C@H]2C(=O)N(C)C2(CCC2)C(=O)N(C)[C@@H](C2CCCC2)C(=O)N(C)[C@H](C(=O)N2CCCCC2)CC(=O)N1C [PP3096, (2S,8S,12R,14S,20S,23S,27S,30S,36S,38Z)-20-cyclopentyl-32-cyclopropyl-12-ethoxy-8-[2-[3-methoxy-4-(trifluoromethyl)phenyl]ethyl]-4,16,19,22,26,35-hexamethyl-30-[(1S)-1-methylpropyl]-23-(piperidine-1-carbonyl)-27-propyl-2-(p-tolylmethyl)spiro[1,4,7,10,16,19,22,26,29,32,35-undecazatricyclo[34.5.1.0^10,14]dotetracont-38-ene-17,1′-cyclobutane]-3,6,9,15,18,21,25,28,31,34,42-undecone]
NRAS/KRAS (ratio of KD value with respect to GDP-bound NRAS wild-type protein to KD value with respect to KRAS) [1, 5]: A (a compound having 10 or more and less than 20 is denoted as A)
IC50 [4]: 35.8 nM
HRAS/KRAS (ratio of KD value with respect to GDP-bound HRAS wild-type protein to KD value with respect to KRAS) [3, 6]: A (a compound having 10 or more and less than 20 is denoted as A)

CC[C@H](C)[C@@H]1NC(=O)[C@H](CC(C)C)N(C)C(=O)C[C@@H](C(=O)N2CCOCC2)N(C)C(=O)[C@H](C2CCCC2)N(C)C(=O)C2(CCCC2)NC(=O)[C@@H]2CCCN2C(=O)[C@H](CCc2ccc(C(F)(F)F)c(Cl)c2)NC(=O)CN(C)C(=O)[C@H](Cc2ccc(C(F)(F)F)cc2)N(CCC(C)(C)C)C(=O)CN(C)C(=O)CN(C)C1=O [PP0127] ([NMeL]I[Sar][Sar][X6][Sar][hPhe(3-Cl-4-CF3)]P[Ac5c][NMeGly(cPent)][NMeD]-Morpholide; lactam N-11)
NRAS/KRAS (ratio of KD for GDP-bound NRAS wild-type to KD for KRAS) ([1]; KD ratio NRAS/KRAS, SPR): C (A compound having a KD ratio of 0.1 or more and less than 3 is denoted as C)
IC50 [4]: 25.3 nM
HRAS/KRAS (ratio of KD for GDP-bound HRAS wild-type to KD for KRAS) ([3]; KD ratio HRAS/KRAS, SPR): C (A compound having a KD ratio of 0.1 or more and less than 3 is denoted as C)

CCC(CC)[C@H]1C(=O)N(C)[C@H](C(=O)N2CCCCC2)CC(=O)N(C)[C@H]2CCC/C=C/c3ccc(cc3)C[C@@H](C(=O)N(C)CC(=O)N[C@@H](CCc3ccc(Cl)c(Cl)c3)C(=O)N3CCC[C@H]3C(=O)NC3(CC(C)(C)C3)C(=O)N1C)N1CC/C=C\C[C@@H](C1=O)N(C)C(=O)CN(C)C(=O)[C@H]([C@@H](C)CC)NC2=O [PP3055]
NRAS/KRAS (ratio of KD value with respect to GDP-bound NRAS wild-type protein to KD value with respect to KRAS) [1, 5]: AA (a compound having 20 or more is denoted as AA)
IC50 ([4]; read-out: NCI-H441 IC50, NCI-H441 cells, 4 days, CellTiter-Glo): 69.2 nM
HRAS/KRAS (ratio of KD value with respect to GDP-bound HRAS wild-type protein to KD value with respect to KRAS) [3, 6]: A (a compound having 10 or more and less than 20 is denoted as A)
